Experimental data from patent US20090181948A1, “DIAMINE DERIVATIVE” (KYOWA HAKKO KOGYO CO., LTD., priority 2005, published 2009).

Tests used:
histamine H3 receptor = molecular target: T1, histamine H3 receptor (Rattus norvegicus, UniProt Q9QYN8); experiment: Histamine H3 receptor binding assay ([3H]-Nα-methylhistamine binding to rat striatum homogenate); conditions: for inhibition at 1 µM: 1 μmol/L test compound, [3H]-Nα-methylhistamine 1 nmol/L, striata of Sprague-Dawley male rats, 25° C., 1 hour, read-out: Inhibition ratio of [3H]-Nα-methylhistamine binding
T1 construct: from tissue; host or cells: rat striatum (Sprague-Dawley, male, 6 weeks), membrane homogenate
Summary of the method: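 Rat striatum membranes (20 μg protein) incubated with [3H]-Nα-methylhistamine 1 nmol/L in 50 mmol/L Tris/HCl pH 7.4, 5 mmol/L EDTA, 1 hour at 25° C; bound ligand by filtration and scintillation counting. Nonspecific binding defined with 10 μmol/L thioperamide; % inhibition reported at 1 μmol/L compound.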

T1 sequence (Q9QYN8 whole entry): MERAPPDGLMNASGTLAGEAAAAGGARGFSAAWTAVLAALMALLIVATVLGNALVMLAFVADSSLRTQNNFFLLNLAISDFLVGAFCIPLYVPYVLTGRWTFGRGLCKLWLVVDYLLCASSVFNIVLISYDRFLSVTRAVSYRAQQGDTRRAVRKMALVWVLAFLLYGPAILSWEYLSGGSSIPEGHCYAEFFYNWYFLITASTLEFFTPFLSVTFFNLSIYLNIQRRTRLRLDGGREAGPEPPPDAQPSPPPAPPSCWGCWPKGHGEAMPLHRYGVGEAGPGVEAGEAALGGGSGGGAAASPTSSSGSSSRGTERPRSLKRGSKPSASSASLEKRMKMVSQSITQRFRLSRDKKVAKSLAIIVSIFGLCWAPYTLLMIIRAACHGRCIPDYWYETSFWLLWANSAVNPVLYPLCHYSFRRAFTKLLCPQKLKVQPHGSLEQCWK

SMILES | melting point [°C] | inhibition at 1 µM (histamine H3 receptor) [%] | Kd (histamine H3 receptor; rat striatum homogenate, read-out: dissociation constant Kd of [3H]-Nα-methylhistamine binding to the rat H3 receptor) [nM]
CN1CCCC1CCN1CCN(CCC2CCCN2C)C1=C(C#N)C#N (stereo not shown) [Compound 4, {1,3-Bis[2-(1-methylpyrrolidin-2-yl)ethyl]imidazolidin-2-ylidene}malononitrile] | 121 to 123 | ≥ 80 | –
C[C@@H]1CCCN1CCCN1CCN(CCN2CCC[C@H]2C)C1=C(C#N)C#N [Compound 55, {1-[2-((R)-2-methylpyrrolidin-1-yl)ethyl]-3-[3-((R)-2-methylpyrrolidin-1-yl)propyl]imidazolidin-2-ylidene}malononitrile] | 74 to 75 | ≥ 80 | –
N#CC(C#N)=C1N(CCCN2CCCCC2)CCN1CCN1CCCC1 [Compound 59, {1-(3-Piperidinopropyl)-3-[2-(pyrrolidin-1-yl)ethyl]imidazolidin-2-ylidene}malononitrile] | 63 to 64 | ≥ 80 | –
N#CC(C#N)=C1N(CCCN2CCCC2)CCN1CCN1CCCC1 [Compound 60, {1-[2-(Pyrrolidin-1-yl)ethyl]-3-[3-(pyrrolidin-1-yl)propyl]imidazolidin-2-ylidene}malononitrile] | 70 to 71 | ≥ 80 | –
CC1CCCN1CCCN1CCN(CCN2CCCC2)C1=C(C#N)C#N (stereo not shown) [Compound 61, {1-[3-(2-Methylpyrrolidin-1-yl)propyl]-3-[2-(pyrrolidin-1-yl)ethyl]imidazolidin-2-ylidene}malononitrile] | 95 to 96 | ≥ 80 | –
C[C@@H]1CCCN1CCCN1CCN(CCCN2CCC[C@@H]2C)C1=C(C#N)C#N [Compound 117] | 87 to 89 | ≥ 80 | –
N#CC(C#N)=C1N(CCCN2CCC[C@@H]2CO)CCN1CCCN1CCC[C@@H]1CO [Compound 118, {1,3-Bis[3-((R)-2-hydroxymethylpyrrolidin-1-yl)propyl]imidazolidin-2-ylidene}malononitrile] | 79 to 80 | ≥ 80 | –
CC1CCCN1CCCN1CCN(CCCN2CCC(F)(F)C2)C1=C(C#N)C#N (stereo not shown) [Compound 120, {1-[3-(3,3-Difluoropyrrolidin-1-yl)propyl]-3-[3-(2-methylpyrrolidin-1-yl)propyl]imidazolidin-2-ylidene}malononitrile] | 99 to 102 | ≥ 80 | –
N#CCS(=O)(=O)C=C1N(CCCN2CCCCC2)CCN1CCCN1CCCCC1 [Compound 136, [1,3-Bis(3-piperidinopropyl)imidazolidin-2-ylidene]methanesulfonylacetonitrile] | 105 to 107 | – | –
C[C@H]1CCCN1CCCN1CCN(CCCN2CCC[C@@H]2C)C1=CS(=O)(=O)CC#N [Compound 138, {1,3-Bis[3-((S)-2-methylpyrrolidin-1-yl)propyl]imidazolidin-2-ylidene}methanesulfonylacetonitrile] | 91 to 93 | – | –
CN(CCN1CCCCC1)C(=C(C#N)C#N)N1CCC(N(C)c2ccccc2)CC1 [Compound 146, {[4-(N-methyl-N-phenylamino)piperidino][N-methyl-N-(2-piperidinoethyl)amino]methylene}malononitrile] | 156 to 158 | – | –
N#CC(C#N)=C(NCCN1CCCCC1)N1CCC(CN2CCCCC2)CC1 [Compound 147, [(2-Piperidinoethylamino)(4-piperidinomethylpiperidino)methylene]malononitrile] | 78 to 80 | ≥ 80 | –
N#CC(C#N)=C(NCCCN1CCCCC1)N1CCC(N2CCCC2)CC1 [Compound 158, {(3-Piperidinopropylamino)[4-(pyrrolidin-1-yl)piperidino]methylene}malononitrile] | 114 to 116 | ≥ 80 | –
CCN(CCCN1CCCCC1)C(=C(C#N)C#N)N1CCC(N2CCCCC2)CC1 [Compound 162, {[N-ethyl-N-(3-piperidinopropyl)amino](4-piperidinopiperidino)methylene}malononitrile] | 94 to 96 | ≥ 80 | –
CC1CCCN1C1CCN(C(NCCCN2CCCCC2)=C(C#N)C#N)CC1 (stereo not shown) [Compound 163, {[4-(2-Methylpyrrolidin-1-yl)piperidino](3-piperidinopropylamino)methylene}malononitrile] | 83 to 84 | ≥ 80 | –
N#CC(C#N)=C(NCCCN1CCCCC1)N1CCC(N2CCOCC2)CC1 [Compound 164, [(3-Piperidinopropylamino) (4-morpholinopiperidino)methylene]malononitrile] | 122 to 124 | – | –

SMILES | melting point [°C] | inhibition at 1 µM (histamine H3 receptor) [%] | Kd (histamine H3 receptor; rat striatum homogenate, read-out: dissociation constant Kd of [3H]-Nα-methylhistamine binding to the rat H3 receptor) [nM]
CC(C)N1CCC(N(C)C(=C(C#N)C#N)N2CCC(CN3CCCCC3)CC2)CC1 [Compound 179, {[N-(1-isopropylpiperidin-4-yl)-N-methylamino](4-piperidinomethylpiperidino)methylene}malononitrile] | 197 to 198 | ≥ 80 | –
N#CC(C#N)=C(NCCCN1CCCCC1)N1CCN(C2CCCCC2)CC1 [Compound 183, [(4-Cyclohexylpiperazin-1-yl)(3-piperidinopropylamino)methylene]malononitrile] | 136 to 137 | – | –
N#CC(C#N)=C1N(CCN2CCCCC2)c2ccccc2N1CCN1CCCCC1 [Compound 192, [1,3-Bis-(2-piperidinoethyl)benzimidazolidin-2-ylidene]malononitrile] | 127 to 128 | – | –
C[C@@H]1CCCN1CCCN1CCN(CCN2CCCCC2)C1=C(C#N)C#N [Compound 194, {1-[3-((R)-2-methylpyrrolidin-1-yl)propyl]-3-(2-piperidinoethyl)imidazolidin-2-ylidene}malononitrile] | 74 to 76 | ≥ 80 | –
C[C@H]1CCCN1CCCN1CCN(CCN2CCCCC2)C1=C(C#N)C#N [Compound 195, {1-[3-((S)-2-methylpyrrolidin-1-yl)propyl]-3-(2-piperidinoethyl)imidazolidin-2-ylidene}malononitrile] | 70 to 71 | ≥ 80 | –
C[C@@H]1CCCN1CCN1CCN(CCCN2CCC[C@@H]2C)C1=C(C#N)C#N [Compound 196, {3-[2-((R)-2-methylpyrrolidin-1-yl)ethyl]-1-[3-((S)-2-methylpyrrolidin-1-yl)propyl]imidazolidin-2-ylidene}malononitrile] | 94 to 95 | ≥ 80 | –
C[C@@H]1CCCN1CCCN1CCN(CCN2CCC[C@@H]2C)C1=C(C#N)C#N [Compound 197, {3-[2-((S)-2-methylpyrrolidin-1-yl)ethyl]-1-[3-((R)-2-methylpyrrolidin-1-yl)propyl]imidazolidin-2-ylidene}malononitrile] | 93 to 94 | ≥ 80 | –
CC1CCCCN1CCN1CCN(CCCN2CCC[C@@H]2C)C1=C(C#N)C#N (stereo partly drawn) [Compound 198, {3-[2-(2-Methylpiperidino)ethyl]-1-[3-((S)-2-methylpyrrolidin-1-yl)propyl]imidazolidin-2-ylidene}malononitrile] | 88 to 89 | ≥ 80 | –
CC1CCCN1CCCN1C(=C(C#N)C#N)N(CCN2CCCCC2)c2ccccc21 (stereo not shown) [Compound 200, {1-[3-(2-Methylpyrrolidin-1-yl)propyl]-3-(2-piperidinoethyl)benzimidazolidin-2-ylidene}malononitrile] | 85 to 86 | ≥ 80 | –
C[C@H]1CCCN1CCCN1CCN(CCCN2CCOCC2)C1=C(C#N)C#N [Compound 201, {3-(3-Morpholinopropyl)-1-[3-((S)-2-methylpyrrolidin-1-yl)propyl]imidazolidin-2-ylidene}malononitrile] | 72 to 73 | ≥ 80 | –
N#CC(C#N)=C1N(CCCN2CCCCC2)CCN1C1CCN(CC(F)(F)F)CC1 [Compound 225, {1-(3-Piperidinopropyl)-3-[1-(2,2,2-trifluoroethyl)piperidin-4-yl]imidazolidin-2-ylidene}malononitrile] | 103 to 105 | – | –
C#CC(C)(C)N1CCC(N2CCN(CCCN3CCCCC3)C2=C(C#N)C#N)CC1 [Compound 228, {1-[1-(1,1-Dimethyl-2-propynyl)piperidin-4-yl]-3-(3-piperidinopropyl)imidazolidin-2-ylidene}malononitrile] | 112 to 115 | ≥ 80 | –
N#CC(C#N)=C(NC1CCN(Cc2ccccc2)CC1)NC1CCN(Cc2ccccc2)CC1 [Compound 239, [Bis(1-benzylpiperidin-4-ylamino)methylene]malononitrile] | 147 to 148 | – | –
C[C@@H]1CCCN1CCCN1CCN(CCCN2CCC[C@@H]2C)C1=C(C#N)S(=O)(=O)c1ccccc1 [Compound 246, {1-[3-((S)-2-methylpyrrolidin-1-yl)propyl]-3-[3-((R)-2-methylpyrrolidin-1-yl)propyl]imidazolidin-2-ylidene}benzenesulfonylacetonitrile] | – | ≥ 80 | –
CNCCc1cnc[nH]1 [[^3H]-N^α-methylhistamine, reference compound] | – | – | 0.57 ± 0.04
